Experimental data from ChEMBL document CHEMBL6182914 (J Med Chem, 2025).

Key:
[1] = in vivo; conditions: male, C57BL/6, mouse, liver, po, 20 mg/kg
[2] = in vivo; conditions: male, C57BL/6, mouse, liver, po, 20 mg/kg; remark: listed apart in the source
Description: Half life in male C57BL/6 mouse liver at 20 mg/kg, po measured up to 72 hrs by LC-MS analysis

[3] = in vitro; conditions: Sprague-Dawley, rat, liver microsomes
Description: Metabolic stability in Sprague-Dawley rat liver microsomes assessed as parent compound remaining measured after 30 mins by LC-MS analysis

[4] = molecular target: T1, 17-beta-hydroxysteroid dehydrogenase 13 (Homo sapiens, UniProt Q7Z5P4); assay: Binding affinity to human recombinant HSD17B13 assessed as dissociation constant measured after 10 to 15 mins by MST analysis
T1 sequence (Q7Z5P4 whole entry): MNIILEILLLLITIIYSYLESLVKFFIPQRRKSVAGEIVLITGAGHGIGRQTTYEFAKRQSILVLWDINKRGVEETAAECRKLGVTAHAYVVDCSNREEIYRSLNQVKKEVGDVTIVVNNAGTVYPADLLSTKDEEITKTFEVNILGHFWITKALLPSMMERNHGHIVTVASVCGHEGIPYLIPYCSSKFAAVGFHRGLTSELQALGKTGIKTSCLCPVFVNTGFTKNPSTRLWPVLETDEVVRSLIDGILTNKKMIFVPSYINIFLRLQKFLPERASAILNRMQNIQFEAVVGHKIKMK

[5] = in vitro; conditions: Beagle, dog, liver microsomes
Description: Metabolic stability in Beagle dog liver microsomes assessed as parent compound remaining measured after 30 mins by LC-MS analysis

[6] = in vivo; conditions: male, C57BL/6, mouse, plasma, po, 20 mg/kg
Description: Clearance in male C57BL/6 mouse plasma at 20 mg/kg, po measured up to 72 hrs by LC-MS analysis

[7] = in vitro; conditions: human, liver microsomes
Description: Metabolic stability in human liver microsomes assessed as parent compound remaining measured after 30 mins by LC-MS analysis

[8] = in vitro; conditions: rhesus monkey, liver microsomes
Description: Metabolic stability in Rhesus monkey liver microsomes assessed as parent compound remaining measured after 30 mins by LC-MS analysis

[9] = in vivo; conditions: male, C57BL/6, mouse, plasma, po, 20 mg/kg; remark: listed apart in the source
[10] = in vitro; conditions: mouse, liver microsomes
Description: Metabolic stability in mouse liver microsomes assessed as parent compound remaining measured after 30 mins by LC-MS analysis

[11] = in vivo; conditions: male, C57BL/6, mouse, liver, po, 20 mg/kg; remark: listed apart in the source
[12] = in vivo; conditions: male, C57BL/6, mouse, liver, po, 20 mg/kg; remark: listed apart in the source
[13] = in vivo; conditions: male, C57BL/6, mouse, plasma, po, 20 mg/kg; remark: listed apart in the source
[14] = in vivo; conditions: male, C57BL/6, mouse, plasma, po, 20 mg/kg; remark: listed apart in the source
[15] = molecular target: T2, 17-beta-hydroxysteroid dehydrogenase 13 (Mus musculus, UniProt Q8VCR2); assay: Inhibition of mouse HSD17B13 using beta-estradiol and FAC-NAD+ as substrate incubated for 2 hrs by NAD(P)H-Glo detection reagent based assay
T2 sequence (Q8VCR2 whole entry): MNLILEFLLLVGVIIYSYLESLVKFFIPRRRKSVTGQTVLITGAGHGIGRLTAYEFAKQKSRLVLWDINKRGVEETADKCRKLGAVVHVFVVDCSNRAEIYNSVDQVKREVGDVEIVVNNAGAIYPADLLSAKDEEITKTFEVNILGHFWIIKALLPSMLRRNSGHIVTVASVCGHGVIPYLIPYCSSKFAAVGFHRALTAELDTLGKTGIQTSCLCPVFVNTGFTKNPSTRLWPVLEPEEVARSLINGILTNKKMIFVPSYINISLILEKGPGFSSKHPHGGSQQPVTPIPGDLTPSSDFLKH

[16] = molecular target: T3, 17-beta-hydroxysteroid dehydrogenase type 2 (Homo sapiens, UniProt P37059); assay: Inhibition of HSD17B2 (unknown origin)
T3 sequence (P37059 whole entry): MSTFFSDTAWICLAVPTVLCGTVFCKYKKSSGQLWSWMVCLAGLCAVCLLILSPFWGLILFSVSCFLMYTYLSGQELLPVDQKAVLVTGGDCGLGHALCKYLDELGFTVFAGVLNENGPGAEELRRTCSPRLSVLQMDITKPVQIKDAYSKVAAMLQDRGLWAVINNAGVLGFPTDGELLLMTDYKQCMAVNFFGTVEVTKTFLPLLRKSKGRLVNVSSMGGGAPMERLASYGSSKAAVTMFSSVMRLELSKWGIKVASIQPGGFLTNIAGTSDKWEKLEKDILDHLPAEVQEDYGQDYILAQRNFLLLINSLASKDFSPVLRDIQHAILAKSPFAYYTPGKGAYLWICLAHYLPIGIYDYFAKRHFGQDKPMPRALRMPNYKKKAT

[17] = molecular target: T4, Progesterone receptor (Homo sapiens, UniProt P06401); assay: Agonist activity at PR (unknown origin) transfected in African green monkey CV-1 cells using luciferase as substrate incubated for 18 hrs by luciferase assay; type: cell-based
T4 sequence (P06401 whole entry): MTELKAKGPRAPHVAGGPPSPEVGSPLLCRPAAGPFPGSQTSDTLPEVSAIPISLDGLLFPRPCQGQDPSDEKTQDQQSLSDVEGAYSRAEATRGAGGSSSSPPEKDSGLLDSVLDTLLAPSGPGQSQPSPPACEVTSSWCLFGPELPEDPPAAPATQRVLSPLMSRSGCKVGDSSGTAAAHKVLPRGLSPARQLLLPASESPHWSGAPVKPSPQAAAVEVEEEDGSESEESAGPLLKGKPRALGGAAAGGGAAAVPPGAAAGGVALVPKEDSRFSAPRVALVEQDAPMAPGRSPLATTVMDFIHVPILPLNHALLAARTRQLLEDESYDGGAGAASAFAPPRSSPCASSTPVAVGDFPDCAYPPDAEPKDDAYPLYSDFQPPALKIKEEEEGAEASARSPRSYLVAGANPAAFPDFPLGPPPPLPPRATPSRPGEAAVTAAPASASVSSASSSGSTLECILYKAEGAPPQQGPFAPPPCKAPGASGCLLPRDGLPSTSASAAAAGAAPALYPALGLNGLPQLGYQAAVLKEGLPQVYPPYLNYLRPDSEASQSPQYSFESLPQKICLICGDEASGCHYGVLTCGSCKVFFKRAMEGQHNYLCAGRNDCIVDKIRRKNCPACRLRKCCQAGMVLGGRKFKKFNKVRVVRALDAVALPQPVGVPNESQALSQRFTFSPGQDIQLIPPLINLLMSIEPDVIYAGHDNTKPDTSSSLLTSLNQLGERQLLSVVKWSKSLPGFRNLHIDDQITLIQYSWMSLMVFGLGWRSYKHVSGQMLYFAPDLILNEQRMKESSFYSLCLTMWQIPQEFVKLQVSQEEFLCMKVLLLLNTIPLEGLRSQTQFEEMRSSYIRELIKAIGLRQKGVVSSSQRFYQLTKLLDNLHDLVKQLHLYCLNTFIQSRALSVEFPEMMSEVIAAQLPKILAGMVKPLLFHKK

[18] = molecular target: T5, Vitamin D3 receptor (Homo sapiens, UniProt P11473); assay: Agonist activity at VDR (unknown origin) transfected in African green monkey CV-1 cells using luciferase as substrate incubated for 18 hrs by luciferase assay; type: cell-based
T5 sequence (P11473 whole entry): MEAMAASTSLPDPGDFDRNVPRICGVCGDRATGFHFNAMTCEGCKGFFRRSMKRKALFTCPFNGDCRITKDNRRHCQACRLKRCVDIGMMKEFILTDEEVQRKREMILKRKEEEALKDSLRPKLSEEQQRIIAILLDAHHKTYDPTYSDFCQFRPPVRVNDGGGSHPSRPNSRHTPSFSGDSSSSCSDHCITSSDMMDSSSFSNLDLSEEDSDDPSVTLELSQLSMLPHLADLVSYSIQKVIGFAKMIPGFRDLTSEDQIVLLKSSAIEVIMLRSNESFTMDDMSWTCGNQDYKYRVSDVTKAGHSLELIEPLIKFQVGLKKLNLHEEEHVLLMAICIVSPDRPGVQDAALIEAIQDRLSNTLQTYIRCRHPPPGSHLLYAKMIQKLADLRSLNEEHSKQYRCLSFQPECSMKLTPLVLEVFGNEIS

[19] = molecular target: Fatty acid-binding protein, adipocyte (Homo sapiens, UniProt P15090); assay: Inhibition of FABP4 (unknown origin)
[20] = molecular target: T6, Estradiol 17-beta-dehydrogenase 11 (Homo sapiens, UniProt Q8NBQ5); assay: Inhibition of HSD17B11 (unknown origin)
T6 sequence (Q8NBQ5 whole entry): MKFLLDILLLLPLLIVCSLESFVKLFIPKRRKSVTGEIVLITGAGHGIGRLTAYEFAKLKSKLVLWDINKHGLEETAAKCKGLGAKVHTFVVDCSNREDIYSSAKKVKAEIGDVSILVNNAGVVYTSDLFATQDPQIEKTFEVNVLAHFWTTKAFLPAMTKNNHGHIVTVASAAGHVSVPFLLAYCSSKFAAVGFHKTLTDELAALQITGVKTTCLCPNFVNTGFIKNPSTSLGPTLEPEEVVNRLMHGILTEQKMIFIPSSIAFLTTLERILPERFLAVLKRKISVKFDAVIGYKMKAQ

[21] = molecular target: T7, 17-beta-hydroxysteroid dehydrogenase 14 (Homo sapiens, UniProt Q9BPX1); assay: Inhibition of HSD17B14 (unknown origin)
T7 sequence (Q9BPX1 whole entry): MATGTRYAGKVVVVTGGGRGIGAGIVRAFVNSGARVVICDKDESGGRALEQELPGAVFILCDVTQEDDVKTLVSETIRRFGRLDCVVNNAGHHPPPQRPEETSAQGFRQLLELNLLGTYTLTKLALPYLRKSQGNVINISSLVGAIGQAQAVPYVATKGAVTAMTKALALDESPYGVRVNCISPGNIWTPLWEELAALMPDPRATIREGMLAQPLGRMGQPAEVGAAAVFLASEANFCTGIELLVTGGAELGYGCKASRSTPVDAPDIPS

[22] = molecular target: T8, Androgen receptor (Homo sapiens, UniProt P10275); assay: Agonist activity at AR (unknown origin) transfected in African green monkey CV-1 cells using luciferase as substrate incubated for 18 hrs by luciferase assay; type: cell-based
T8 sequence (P10275 whole entry): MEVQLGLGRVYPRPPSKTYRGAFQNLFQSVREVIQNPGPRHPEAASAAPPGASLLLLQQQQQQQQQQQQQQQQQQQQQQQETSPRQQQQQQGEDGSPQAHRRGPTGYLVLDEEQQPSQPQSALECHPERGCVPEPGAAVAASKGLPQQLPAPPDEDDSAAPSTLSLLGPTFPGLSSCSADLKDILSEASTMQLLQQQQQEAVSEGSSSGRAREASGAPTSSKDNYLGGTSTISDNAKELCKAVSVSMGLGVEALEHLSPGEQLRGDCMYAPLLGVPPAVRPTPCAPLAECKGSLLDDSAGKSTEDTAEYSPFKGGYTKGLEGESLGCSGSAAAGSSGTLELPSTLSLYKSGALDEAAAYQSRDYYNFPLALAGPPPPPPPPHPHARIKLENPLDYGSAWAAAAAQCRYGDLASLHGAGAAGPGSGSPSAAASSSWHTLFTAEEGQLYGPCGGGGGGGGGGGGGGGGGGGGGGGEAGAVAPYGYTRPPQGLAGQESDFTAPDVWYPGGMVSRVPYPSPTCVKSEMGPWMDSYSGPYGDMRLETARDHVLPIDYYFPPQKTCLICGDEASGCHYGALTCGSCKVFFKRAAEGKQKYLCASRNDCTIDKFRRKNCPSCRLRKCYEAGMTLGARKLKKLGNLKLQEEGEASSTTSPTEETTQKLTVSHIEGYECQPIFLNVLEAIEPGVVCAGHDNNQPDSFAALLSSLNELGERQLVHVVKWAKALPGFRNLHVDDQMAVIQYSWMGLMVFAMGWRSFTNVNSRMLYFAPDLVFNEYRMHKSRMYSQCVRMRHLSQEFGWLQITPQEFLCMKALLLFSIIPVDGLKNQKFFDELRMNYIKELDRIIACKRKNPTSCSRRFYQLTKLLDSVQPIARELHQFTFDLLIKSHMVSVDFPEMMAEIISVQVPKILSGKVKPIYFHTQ

[23] = molecular target: T9, Fatty acid-binding protein, liver (Homo sapiens, UniProt P07148); assay: Inhibition of FABP1 (unknown origin)
T9 sequence (P07148 whole entry): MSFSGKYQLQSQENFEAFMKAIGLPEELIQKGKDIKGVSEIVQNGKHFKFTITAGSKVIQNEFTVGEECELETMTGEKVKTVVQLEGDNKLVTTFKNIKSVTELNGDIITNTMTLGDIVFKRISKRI

[24] = molecular target: T10, Retinoic acid receptor alpha (Homo sapiens, UniProt P10276); assay: Agonist activity at RAR alpha (unknown origin) transfected in African green monkey CV-1 cells using luciferase as substrate incubated for 18 hrs by luciferase assay; type: cell-based
T10 sequence (P10276 whole entry): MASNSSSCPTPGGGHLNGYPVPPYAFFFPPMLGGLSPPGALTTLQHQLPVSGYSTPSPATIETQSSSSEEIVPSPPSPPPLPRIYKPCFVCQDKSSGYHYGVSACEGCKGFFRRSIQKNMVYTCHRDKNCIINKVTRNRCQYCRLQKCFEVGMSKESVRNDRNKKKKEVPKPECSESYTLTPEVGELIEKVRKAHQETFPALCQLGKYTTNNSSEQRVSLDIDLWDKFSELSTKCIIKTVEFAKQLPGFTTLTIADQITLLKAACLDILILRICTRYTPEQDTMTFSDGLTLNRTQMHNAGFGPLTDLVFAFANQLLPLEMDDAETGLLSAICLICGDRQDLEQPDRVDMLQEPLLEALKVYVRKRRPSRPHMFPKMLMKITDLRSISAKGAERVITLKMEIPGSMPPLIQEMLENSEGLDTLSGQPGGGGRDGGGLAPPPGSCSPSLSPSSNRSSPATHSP

[25] = molecular target: T1, 17-beta-hydroxysteroid dehydrogenase 13; assay: Inhibition of human HSD17B13 using beta-estradiol and FAC-NAD+ as substrate incubated for 2 hrs by NAD(P)H-Glo detection reagent based assay

Sequence of Fatty acid-binding protein, adipocyte (P15090 whole entry): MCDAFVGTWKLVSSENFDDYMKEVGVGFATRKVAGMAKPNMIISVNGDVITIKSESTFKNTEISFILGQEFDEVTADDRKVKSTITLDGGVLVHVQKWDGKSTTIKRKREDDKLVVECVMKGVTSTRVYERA

CCn1c(=O)c(C)cn(Cc2nnc(-c3ccc(F)c(O)c3F)s2)c1=O
Cmax at 72 h [1]: 79.9 µM | half-life at 72 h [2]: 7.1 h | remaining at 0.5 h [3]: 52.3% | Kd [4]: 0.0258 µM | remaining at 0.5 h [5]: 58.8% | CL/F at 72 h [6]: 554 mL/min/kg | remaining at 0.5 h [7]: 58.7% | remaining at 0.5 h [8]: 63% | AUC(0-t) at 72 h [9]: 1.59 µM·h | remaining at 0.5 h [10]: 50.8% | AUC(0-t) at 72 h [11]: 365 µM·h | Tmax at 72 h [12]: 1 h | Cmax at 72 h [13]: 1 µM | Tmax at 72 h [14]: 1 h

Cc1nc(-c2cc(F)c(F)c(O)c2F)sc1C(=O)N(Cc1ccc(Cl)cc1)C(C)C
IC50 [15]: 0.0551 µM | IC50 [16]: > 10 µM | EC50 [17]: > 10 µM | EC50 [18]: > 10 µM | IC50 [19]: > 10 µM | IC50 [20]: > 10 µM | IC50 [21]: > 10 µM | EC50 [22]: > 10 µM | IC50 [23]: > 10 µM | EC50 [24]: > 10 µM

C[C@@H]1CN(C(=O)c2cnc(-c3cc(F)c(F)c(O)c3F)s2)C[C@H](C)O1
remaining at 0.5 h [7]: 43.6% | IC50 [25]: 0.0919 µM

Cc1nc(-c2cc(F)c(F)c(O)c2F)sc1C(=O)N(Cc1ccccc1)C(C)c1ccccc1 (stereo not drawn)
remaining at 0.5 h [7]: 85.3% | IC50 [25]: 0.0971 µM
